According to PubChem BioAssay (NCI):
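How tested: cells in 96-well plates exposed to compound for 48 hours at five concentrations. TGI marks complete inhibition of growth.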

Legend:
Assay in all cases: DTP human tumour cell line panel, 48 h
[1] = test system: KM20L2 colon
[2] = test system: SF-268 CNS
[3] = test system: LXFL 529 NSCLC
[4] = test system: LOX IMVI melanoma
[5] = test system: SW-620 colon
[6] = test system: UACC-62 melanoma
[7] = test system: M19-MEL melanoma
[8] = test system: HCT-116 colon
[9] = test system: KM12 colon
[10] = test system: K-562 leukemia
[11] = test system: UO-31 renal
[12] = test system: SK-MEL-5 melanoma
[13] = test system: CCRF-CEM leukemia
[14] = test system: SK-MEL-28 melanoma
[15] = test system: TK-10 renal
[16] = test system: NCI-H23 lung
[17] = test system: NCI-H522 lung
[18] = test system: OVCAR-3 ovarian
[19] = test system: HOP-62 NSCLC
[20] = test system: OVCAR-4 ovarian
[21] = test system: DMS 114 small cell lung
[22] = test system: HT29 colon
[23] = test system: NCI-H460 lung
[24] = test system: HOP-92 NSCLC
[25] = test system: OVCAR-5 ovarian
[26] = test system: RXF 393 renal
[27] = test system: HCT-15 colon
[28] = test system: UACC-257 melanoma
[29] = test system: DLD-1 colon
[30] = test system: SK-OV-3 ovarian
[31] = test system: SK-MEL-2 melanoma
[32] = test system: COLO 205 colon
[33] = test system: DMS 273 small cell lung
[34] = test system: OVCAR-8 ovarian
[35] = test system: M14 melanoma
[36] = test system: MOLT-4 leukemia
[37] = test system: SN12C renal
[38] = test system: ACHN renal
[39] = test system: IGROV1 ovarian
[40] = test system: EKVX NSCLC
[41] = test system: NCI-H226 lung
[42] = test system: HCC-2998 colon
[43] = test system: RPMI-8226 leukemia
[44] = test system: MALME-3M melanoma
[45] = test system: U251 CNS
[46] = test system: SF-295 CNS
[47] = test system: CAKI-1 renal
[48] = test system: A549 NSCLC
[49] = test system: A498 renal
[50] = test system: XF 498 CNS
[51] = test system: RXF-631 renal
[52] = test system: HOP-18 NSCLC
[53] = test system: HL-60(TB) leukemia
[54] = test system: SF-539 CNS
[55] = test system: SNB-19 CNS
[56] = test system: SNB-78 CNS
[57] = test system: 786-0 renal
[58] = test system: SNB-75 CNS
[59] = test system: SR leukemia

CN1C(=O)CN2C(Cl)(Cl)C2(c2ccccc2)c2cc(Cl)ccc21 (stereo unspecified)
TGI [1]: > 100 µM | TGI [2]: > 100 µM | TGI [3]: > 100 µM | TGI [4]: > 100 µM | TGI [5]: > 100 µM | TGI [6]: > 100 µM | TGI [7]: > 100 µM | TGI [8]: > 100 µM | TGI [9]: > 100 µM | TGI [10]: > 100 µM | TGI [11]: > 100 µM | TGI [12]: > 100 µM | TGI [13]: > 100 µM | TGI [14]: > 100 µM | TGI [15]: > 100 µM | TGI [16]: > 100 µM | TGI [17]: > 100 µM | TGI [18]: > 100 µM | TGI [19]: > 100 µM | TGI [20]: > 100 µM | TGI [21]: > 100 µM | TGI [22]: > 100 µM | TGI [23]: > 100 µM | TGI [24]: 88.2 µM | TGI [25]: > 100 µM | TGI [26]: > 100 µM | TGI [27]: > 100 µM | TGI [28]: > 100 µM | TGI [29]: > 100 µM | TGI [30]: > 100 µM | TGI [31]: > 100 µM | TGI [32]: > 100 µM | TGI [33]: > 100 µM | TGI [34]: > 100 µM | TGI [35]: > 100 µM | TGI [36]: 91.9 µM | TGI [37]: > 100 µM | TGI [38]: > 100 µM | TGI [39]: > 100 µM | TGI [40]: > 100 µM | TGI [41]: > 100 µM | TGI [42]: > 100 µM | TGI [43]: > 100 µM | TGI [44]: > 100 µM | TGI [45]: > 100 µM | TGI [46]: > 100 µM | TGI [47]: > 100 µM

Fc1ccc(C2SCc3nc4ccccc4n32)cc1F (stereo unspecified)
TGI [1]: > 100 µM | TGI [2]: > 100 µM | TGI [3]: > 100 µM | TGI [48]: > 100 µM | TGI [49]: > 100 µM | TGI [5]: > 100 µM | TGI [6]: > 100 µM | TGI [7]: > 100 µM | TGI [8]: > 100 µM | TGI [9]: > 100 µM | TGI [10]: > 100 µM | TGI [50]: > 100 µM | TGI [11]: 41 µM | TGI [12]: 34.3 µM | TGI [13]: 97 µM | TGI [14]: 66.7 µM | TGI [15]: 82.3 µM | TGI [16]: 81.9 µM | TGI [17]: 61.7 µM | TGI [18]: > 100 µM | TGI [19]: > 100 µM | TGI [51]: > 100 µM | TGI [20]: 98.9 µM | TGI [21]: 77.8 µM | TGI [23]: > 100 µM | TGI [26]: 80 µM | TGI [27]: > 100 µM | TGI [28]: > 100 µM | TGI [29]: > 100 µM | TGI [30]: > 100 µM | TGI [31]: 63.7 µM | TGI [32]: 90.3 µM | TGI [52]: > 100 µM | TGI [33]: 97.9 µM | TGI [34]: > 100 µM | TGI [53]: 26.2 µM | TGI [35]: 76.7 µM | TGI [36]: 56 µM | TGI [37]: > 100 µM | TGI [54]: > 100 µM | TGI [55]: > 100 µM | TGI [56]: > 100 µM | TGI [38]: > 100 µM | TGI [39]: > 100 µM | TGI [40]: > 100 µM | TGI [57]: > 100 µM | TGI [42]: > 100 µM | TGI [43]: 36.7 µM | TGI [44]: > 100 µM | TGI [45]: > 100 µM | TGI [46]: > 100 µM | TGI [58]: 56.9 µM | TGI [47]: > 100 µM

NC1=NC2=C(CCCC2)C(c2cccs2)S1 (stereo unspecified)
TGI [1]: > 100 µM | TGI [2]: > 100 µM | TGI [3]: > 100 µM | TGI [48]: > 100 µM | TGI [49]: > 100 µM | TGI [5]: > 100 µM | TGI [6]: > 100 µM | TGI [7]: > 100 µM | TGI [8]: > 100 µM | TGI [9]: > 100 µM | TGI [10]: > 100 µM | TGI [50]: > 100 µM | TGI [11]: 74.3 µM | TGI [12]: > 100 µM | TGI [13]: > 100 µM | TGI [14]: > 100 µM | TGI [15]: > 100 µM | TGI [16]: > 100 µM | TGI [17]: > 100 µM | TGI [18]: > 100 µM | TGI [19]: > 100 µM | TGI [20]: > 100 µM | TGI [21]: > 100 µM | TGI [22]: > 100 µM | TGI [23]: > 100 µM | TGI [24]: > 100 µM | TGI [25]: > 100 µM | TGI [26]: > 100 µM | TGI [27]: > 100 µM | TGI [28]: > 100 µM | TGI [30]: > 100 µM | TGI [31]: > 100 µM | TGI [32]: > 100 µM | TGI [52]: > 100 µM | TGI [33]: > 100 µM | TGI [34]: > 100 µM | TGI [53]: > 100 µM | TGI [35]: > 100 µM | TGI [36]: > 100 µM | TGI [37]: > 100 µM | TGI [54]: > 100 µM | TGI [55]: > 100 µM | TGI [56]: > 100 µM | TGI [38]: > 100 µM | TGI [39]: > 100 µM | TGI [40]: > 100 µM | TGI [57]: > 100 µM | TGI [42]: > 100 µM | TGI [43]: > 100 µM | TGI [44]: > 100 µM | TGI [45]: > 100 µM | TGI [46]: > 100 µM | TGI [58]: > 100 µM | TGI [47]: > 100 µM

Cc1cc2c(cc1C)[n+](=O)c(C(=O)CC(=O)C(=O)Nc1ccccc1C(C)C)c(C)n2[O-]
TGI [1]: > 100 µM | TGI [2]: > 100 µM | TGI [3]: > 100 µM | TGI [48]: > 100 µM | TGI [4]: > 100 µM | TGI [49]: > 100 µM | TGI [5]: > 100 µM | TGI [6]: > 100 µM | TGI [7]: > 100 µM | TGI [8]: > 100 µM | TGI [9]: > 100 µM | TGI [10]: > 100 µM | TGI [50]: > 100 µM | TGI [11]: > 100 µM | TGI [12]: > 100 µM | TGI [13]: > 100 µM | TGI [14]: > 100 µM | TGI [15]: > 100 µM | TGI [16]: > 100 µM | TGI [17]: > 100 µM | TGI [18]: > 100 µM | TGI [19]: > 100 µM | TGI [51]: > 100 µM | TGI [20]: > 100 µM | TGI [21]: > 100 µM | TGI [22]: > 100 µM | TGI [23]: > 100 µM | TGI [24]: > 100 µM | TGI [25]: > 100 µM | TGI [26]: > 100 µM | TGI [27]: > 100 µM | TGI [28]: 5.82 µM | TGI [30]: > 100 µM | TGI [31]: > 100 µM | TGI [32]: > 100 µM | TGI [33]: > 100 µM | TGI [34]: > 100 µM | TGI [53]: > 100 µM | TGI [35]: > 100 µM | TGI [36]: > 100 µM | TGI [37]: > 100 µM | TGI [54]: > 100 µM | TGI [55]: > 100 µM | TGI [56]: > 100 µM | TGI [38]: > 100 µM | TGI [39]: > 100 µM | TGI [40]: > 100 µM | TGI [57]: > 100 µM | TGI [41]: > 100 µM | TGI [42]: > 100 µM | TGI [43]: > 100 µM | TGI [44]: > 100 µM | TGI [45]: > 100 µM | TGI [46]: > 100 µM | TGI [58]: > 100 µM | TGI [59]: > 100 µM | TGI [47]: > 100 µM
